Entries after “also recorded” stand apart in the source; their conditions may differ. Like-named read-outs stand apart in the source and are kept apart here.
Experiments:
CD81-LEL = target: T1, CD81-LEL (Homo sapiens, UniProt P60033); test: Surface plasmon resonance binding of ligands to immobilized CD81-LEL; details: for Binding (change in response units): 3 min association; for Dissociation 1 (change in response units) / Dissociation 2 (change in response units): dissociation interval
T1 construct: A recombinant form of the CD81-LEL protein with a GST tag; gift of Dr. Shoshana Levy, Stanford University
T1 sequence (P60033 113-201 limits assumed): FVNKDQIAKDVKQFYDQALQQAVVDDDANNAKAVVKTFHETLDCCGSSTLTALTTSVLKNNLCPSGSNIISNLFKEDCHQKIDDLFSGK
Description: SPR analysis was performed using a Biacore T200 workstation (GE Healthcare, NJ, USA). A recombinant form of the CD81-LEL protein with a GST tag (generously provided by Dr. Shoshana Levy, Stanford University) was used to confirm, using an established experimental technique, the binding of several ligands to the protein. Briefly, 10 μM CD81-LEL-GST diluted into 10 mM Na-Acetate buffer pH 4.5 was immobilized for 15 min at a flow speed of 5 μl/min onto a CM5 sensor chip using amine-coupling (EDC-NHS), Approximately 20,000 RU of protein were immobilized on the chip. The ligands were prepared as 600 μM solutions in PBS-0.05% Tween-80 (the running buffer) and they were introduced to the protein using a pre-programmed 3 minute association and 1 minute dissociation interval.
SPR analysis was performed using a Biacore T100 workstation (GE Healthcare, NJ, USA). […] Approximately 20,000 RU of protein were immobilized on the chip. The ligands were prepared as 200 uM solutions in PBS-1% DMSO (the running buffer) and they were introduced to the protein using a pre-programmed 3 min association and 1 min dissociation interval.

[1] = target: T2, native CD81 on Raji cells (Homo sapiens, UniProt P60033); test: Antibody neutralizing assay: inhibition of JS-81 anti-CD81 antibody binding on Raji cells (FACS); assay type: cell-based; details: for inhibition at 50 µM / inhibition at 100 µM / inhibition at 400 µM: read-out: Inhibition of JS-81 Binding (%)
T2 construct: endogenous in cells; host or cells: Raji cells (human B cell line)
T2 sequence (P60033 1-236): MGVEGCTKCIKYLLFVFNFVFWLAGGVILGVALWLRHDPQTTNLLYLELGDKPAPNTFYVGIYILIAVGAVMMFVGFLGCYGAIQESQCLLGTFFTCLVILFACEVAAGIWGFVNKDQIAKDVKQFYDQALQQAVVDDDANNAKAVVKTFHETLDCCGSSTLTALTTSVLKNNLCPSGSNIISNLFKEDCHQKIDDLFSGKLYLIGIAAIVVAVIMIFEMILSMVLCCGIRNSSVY
Description: For antibody neutralization assay Raji cells were used, a human B cell line that expressed high amounts of CD81 on the surface (data not shown), Cells were grown in RPMI medium (10% FCS, 1% penicillin/streptomycin, 1% L-glutamine, 1% non-essential amino acids, 1% sodium pyruvate, pH 7.4, at 37° C. with 5% CO2). 2×10^5 cells were incubated with or without different concentrations (50 μM, 100 μM, 400 μM and 1 mM) of indicated inhibitor for 20 min at room temperature, subsequently 1 ul (16 ng/μl) of FITC-labeled anti CD81 antibody (BD Pharmingen, 551108) was added to the cells and incubated for 20 min (antibody titration was performed to obtain a working dilution range, data not shown). Cells were washed and analyzed by FACS (BD FACSCalibur, software: Cell Quest Pro). Mean Fluorescence Intensity MFI was calculated using Flowjo software (TreesStar, www.flowjo.com).

Plasmodium berghei = test: Sporozoite infection assay, P. berghei in Hepa1-6 cells; assay type: cell-based; details: for Percent Infection: Hepa1-6 Cells, Plasmodium berghei; for percentage of infection inhibition / effect on infection (in words): P. berghei; for percentage of infection inhibition: Hepa1-6; for effect on infection (in words): Hepa1-6 cells
Plasmodium yoelii [2] = test: Sporozoite development assay, P. yoelii in HepG2-CD81 cells; assay type: cell-based; details: for Percent Infection: HepG2-CD81, Plasmodium yoelii, 400 uM compound; for effect on infection (in words) / percentage of infection inhibition: P. yoelii, HepG2-CD81
Description: (§1) Anopheles stephensi mosquitoes were fed on mice infected with Plasmodium yoelii 17XNL parasites. On day 14 post bloodmeal, salivary glands were harvested, homogenized, sporozoite number was determined using a hemocytometer and the indicated number of sporozoites was added to cell monolayers, Plasmodium falciparum sporozoites were generated by membrane feeding An. stephensi mosquitoes using gametocyte cultures generated in vitro.
(§2) HepG2-CD81 (14) cells were maintained in DMEM supplemented with 10% fetal calf serum and 1 mM glutamine (DMEM/FCS), mAb 2E6 was used for development assays and is directed against Plasmodium Hsp 70 (15) and mAb 2A10 is directed against the repeat region of P. falciparum CSP and was used for invasion assays.
(§3) 5×10^5 HepG2-CD81 cells were plated on collagen coated Lab-Tek wells and allowed to adhere overnight. The following day, cells were preincubated with 400 uM of compound for 30 minutes at 37° C. Controls were pre-incubated with DMSO at the same concentration in which it was found in the compound solutions. 10^5 sporozoites were added to each well and in the case of P. falciparum, incubated for 1.5 hours and scored for invasion whereas in the case of P. yoelii, incubated for 44 hours and scored for exoerythrocytic stages.

Plasmodium falciparum = test: Sporozoite invasion assay, P. falciparum in HepG2-CD81 cells; assay type: cell-based; details: for Percent Infection: HepG2-CD81, Plasmodium falciparum, 400 uM compound; for effect on infection (in words) / percentage of infection inhibition: P. falciparum; for percentage of infection inhibition: HepG2-CD81
Description: as §1, §2, §3

Plasmodium yoelii [3] = test: Sporozoite infection assay, P. yoelii in Hepa1-6 cells; assay type: cell-based; details: for Percent Infection: Hepa1-6 Cells, Plasmodium yoelii; for percentage of infection inhibition: P. yoelii, Hepa1-6

Binding (change in response units) (CD81-LEL; SPR) [response units]	Dissociation 1 (change in response units) (CD81-LEL; SPR) [response units]	Dissociation 2 (change in response units) (CD81-LEL; SPR) [response units]	Inhibition of JS-81 Binding (%) ([1]; 50 μM ligand, Raji cells)	Inhibition of JS-81 Binding (%) ([1]; 100 μM ligand, Raji cells)	Inhibition of JS-81 Binding (%) ([1]; 400 μM ligand, Raji cells)	inhibition at 50 µM ([1]; 50 μM ligand, Raji cells) [%]	inhibition at 100 µM ([1]; 100 μM ligand, Raji cells) [%]	inhibition at 400 µM ([1]; 400 μM ligand, Raji cells) [%]	SMILES	also measured
–	–	–	0	12	11	–	–	–	CC(C)(C)c1ccc(NS(=O)(=O)c2ccc(N)cc2)cc1 [Ligand 7436]	–
43.6	14.7	10.1	–	–	–	0	0	19	CCC(C)(C)c1ccc(Oc2cccc(C(=O)O)c2)cc1 [Ligand 7962]	Percent Infection (Plasmodium berghei): 0%; percentage of infection inhibition (Plasmodium berghei): 100%; effect on infection (in words) (Plasmodium berghei): Inhibition; Percent Infection (Plasmodium yoelii [2]): 0%; effect on infection (in words) (Plasmodium yoelii [2]): inhibit; also recorded: strongest inhibitory effect; percentage of infection inhibition (Plasmodium yoelii [2]): 100%; Percent Infection (Plasmodium falciparum): 0%; effect on infection (in words) (Plasmodium falciparum): inhibit the infection; percentage of infection inhibition (Plasmodium falciparum): 100%; Percent Infection (Plasmodium yoelii [3]): 0%; percentage of infection inhibition (Plasmodium yoelii [3]): 100%
–	–	–	0	0	17	–	–	–	O=C(O)c1ccc(N2CCCCC2)cc1O [Ligand 23895]	–
–	–	–	0	4	19	–	–	–	Cc1ccc(-c2cc(C(=O)O)c3ccccc3n2)c(C)c1 [Ligand 25678]	–
38.6	26.8	21.8	–	–	–	0	0	14	O=C(O)c1cc2cc(OCc3ccccc3)ccc2[nH]1 [Ligand 30930, 5-phenylmethoxy-1H-indole-2-carboxylic acid]	–
–	–	–	0	13	15	–	–	–	NC(N)=N/N=C\c1c(Cl)cccc1Cl [Ligand 68982]	–
–	–	–	–	–	–	0	0	24	COc1cc(-c2ccc(Nc3ccccc3C(=O)O)c(OC)c2)ccc1Nc1ccccc1C(=O)O [Ligand 73735, 2-[4-[4-(2-carboxylatoanilino)-3-methoxyphenyl]-2-methoxyanilino]benzoate]	Percent Infection (Plasmodium berghei): 17.7%; percentage of infection inhibition (Plasmodium berghei): 82.3%; effect on infection (in words) (Plasmodium berghei): Inhibition; Percent Infection (Plasmodium yoelii [2]): 23%; effect on infection (in words) (Plasmodium yoelii [2]): inhibit; also recorded: inhibitory effect; percentage of infection inhibition (Plasmodium yoelii [2]): 77%; Percent Infection (Plasmodium falciparum): 3.2%; effect on infection (in words) (Plasmodium falciparum): inhibit the infection; percentage of infection inhibition (Plasmodium falciparum): 96.8%; binding to CD81 by SPR (in words) (CD81-LEL): bind to CD81-LEL; Percent Infection (Plasmodium yoelii [3]): 38.3%; percentage of infection inhibition (Plasmodium yoelii [3]): 61.7%; inhibition of anti-CD81 binding (in words) ([1]; 100 uM and 400 uM): inhibit anti-CD81 binding to CD81-LEL in a dose dependent manner
–	–	–	0	0	52	–	–	–	CNC1(C(N)=O)CCNCC1 [Ligand 75846]	–

SMILES	Binding (change in response units) (CD81-LEL; SPR) [response units]	Dissociation 1 (change in response units) (CD81-LEL; SPR) [response units]	Dissociation 2 (change in response units) (CD81-LEL; SPR) [response units]	Inhibition of JS-81 Binding (%) ([1]; 50 μM ligand, Raji cells)	Inhibition of JS-81 Binding (%) ([1]; 100 μM ligand, Raji cells)	Inhibition of JS-81 Binding (%) ([1]; 400 μM ligand, Raji cells)	inhibition at 50 µM ([1]; 50 μM ligand, Raji cells) [%]	inhibition at 100 µM ([1]; 100 μM ligand, Raji cells) [%]	inhibition at 400 µM ([1]; 400 μM ligand, Raji cells) [%]	also measured
c1cncc(C2CCCC[NH2+]2)c1 (stereo in doubt) [Ligand 87504, 3-[(2S)-piperidin-2-yl]pyridine]	72	57.9	42.6	–	–	–	–	–	–	binding-dissociation behavior (in words) (CD81-LEL; SPR): best binding and dissociation; also recorded: most desirable binding-dissociation behavior; also recorded: best binding-dissociation behavior; inhibition at 50 µM ([1]; Raji): 0%; inhibition at 100 µM ([1]; Raji): 6%; inhibition at 400 µM ([1]; Raji): 20%

From patent US10548895B2, “Ligands that target Plasmodium sporozoite binding sites on CD81 and therapeutic methods using them” (American University In Cairo (AUC), priority 2014, dated 2020)
